For one test, the target named is Jarid1A (Homo sapiens (Human), UniProt P29375). Nature of the test: Jarid1A in vitro enzyme inhibition assay (TR-FRET). In kind it is biochemical. On the technique in general: Time-resolved FRET reads energy transfer from a long-lived donor to a nearby acceptor.
Another test deals with KDM5A/B. Nature of the test: In vitro cell-based assay: tri-methyl H3K4 immuno-blotting in ZR-75-1 breast cancer cells. The method, then: This quantitative immuno-blotting assay measures the amount tri-methylated histone H3 at amino acid Lysine number 4, a specific substrate […] of the direct enzymatic activity of the histone demethylases KDM5A and KDM5B from extracts of the ZR-75-1 breast cancer cell line.
This assay is a fluorometric immunoassay for the quantification of tri-methyl H3K4 extracted from cells treated with test compound and is used as a measure of the cellular inhibition of KDM5A/B.
Extracts were prepared containing all of the cellular histone material using detergent based lysis and sonication methods. These lysates were subsequently normalized for total protein content using a colorimetric bicinchonic acid assay (MicroBCA Pierce/Thermo Scientific). Normalized cell extracts were then subjected to typical immuno-blotting procedures using NuPage reagents (Life Technologies). Electrophoretically separated histones were then transferred and immobilized using polyvinylidene difluoride membrane (Immobilon-FL Millipore). The amount of tri-methylated lysine 4 of histone H3 was detected using an antibody specific to the tri-methylated state (Cell Signaling Technologies) and quantified on an infrared imager using a densitometry software package (Odyssey CLx, Image Studio, Li-Cor). This background subtracted densitometry value was reported as a ration of the GAPDH amount for that sample and then calculated as a percent of the DMSO treated sample. The software package XL-fit (IDBS) was then used to calculate a relative IC50 value for the dilution series of a given test compound according to the equation: fit=(D+((Vmax*(x^n))/((x^n)+(Km^n)))).

The target of the next test is Jarid1B (Homo sapiens (Human), UniProt Q9UGL1). Nature of the test: Jarid1B in vitro enzyme inhibition assay (TR-FRET). Format: biochemical.
The target of a further test is JMJD2C (Homo sapiens (Human), UniProt Q9H3R0). Nature of the test: JMJD2C in vitro enzyme inhibition assay (TR-FRET). Format: biochemical.
Where [1] appears, read: 72 hours, read-out: Cellular IC50.
The mark [2] stands for this setting: read-out: Cellular IC50, 72 hours.

Counter-ions that a name gives are not always drawn. Like-named read-outs stand apart in the source and are kept apart here.

Chain of JMJD2C (Q9H3R0 2-372): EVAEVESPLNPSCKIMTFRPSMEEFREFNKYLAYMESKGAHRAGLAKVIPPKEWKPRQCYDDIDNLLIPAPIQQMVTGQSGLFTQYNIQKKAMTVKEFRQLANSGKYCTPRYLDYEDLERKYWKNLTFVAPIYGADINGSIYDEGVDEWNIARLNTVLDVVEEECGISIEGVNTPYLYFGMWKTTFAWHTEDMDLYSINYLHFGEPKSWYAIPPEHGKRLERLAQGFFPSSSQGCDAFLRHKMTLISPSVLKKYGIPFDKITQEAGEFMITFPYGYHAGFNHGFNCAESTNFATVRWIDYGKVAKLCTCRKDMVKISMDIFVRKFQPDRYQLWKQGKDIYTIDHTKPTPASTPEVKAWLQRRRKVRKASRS
Chain of Jarid1A (P29375 1-1090): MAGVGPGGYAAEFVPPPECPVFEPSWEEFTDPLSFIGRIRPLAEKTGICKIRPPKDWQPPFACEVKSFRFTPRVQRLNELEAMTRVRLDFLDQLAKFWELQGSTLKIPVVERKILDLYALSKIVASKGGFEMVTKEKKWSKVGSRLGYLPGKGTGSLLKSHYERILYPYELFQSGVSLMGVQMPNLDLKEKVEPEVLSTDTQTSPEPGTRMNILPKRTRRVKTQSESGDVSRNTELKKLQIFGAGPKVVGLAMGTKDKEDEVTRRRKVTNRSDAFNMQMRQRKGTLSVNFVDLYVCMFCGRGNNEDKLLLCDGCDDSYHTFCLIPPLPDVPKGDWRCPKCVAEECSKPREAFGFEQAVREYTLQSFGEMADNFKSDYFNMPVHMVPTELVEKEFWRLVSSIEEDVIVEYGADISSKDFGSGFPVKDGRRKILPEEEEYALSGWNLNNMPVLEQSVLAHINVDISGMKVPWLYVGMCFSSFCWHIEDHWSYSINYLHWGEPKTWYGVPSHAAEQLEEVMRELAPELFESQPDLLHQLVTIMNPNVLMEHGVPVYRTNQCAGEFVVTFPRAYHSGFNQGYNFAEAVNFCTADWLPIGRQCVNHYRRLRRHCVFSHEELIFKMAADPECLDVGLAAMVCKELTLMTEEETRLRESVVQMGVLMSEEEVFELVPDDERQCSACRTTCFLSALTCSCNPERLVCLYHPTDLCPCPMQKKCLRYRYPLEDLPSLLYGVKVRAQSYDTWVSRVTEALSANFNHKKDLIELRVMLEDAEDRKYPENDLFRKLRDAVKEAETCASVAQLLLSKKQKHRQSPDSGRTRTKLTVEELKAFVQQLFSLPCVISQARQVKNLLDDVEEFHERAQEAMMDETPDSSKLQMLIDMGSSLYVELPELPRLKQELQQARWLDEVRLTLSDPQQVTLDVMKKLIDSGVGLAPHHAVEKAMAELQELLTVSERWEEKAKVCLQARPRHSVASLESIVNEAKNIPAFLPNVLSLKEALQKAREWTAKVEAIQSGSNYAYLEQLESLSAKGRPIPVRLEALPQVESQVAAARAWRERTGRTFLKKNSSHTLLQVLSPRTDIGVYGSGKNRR
Chain of Jarid1B (Q9UGL1 2-751): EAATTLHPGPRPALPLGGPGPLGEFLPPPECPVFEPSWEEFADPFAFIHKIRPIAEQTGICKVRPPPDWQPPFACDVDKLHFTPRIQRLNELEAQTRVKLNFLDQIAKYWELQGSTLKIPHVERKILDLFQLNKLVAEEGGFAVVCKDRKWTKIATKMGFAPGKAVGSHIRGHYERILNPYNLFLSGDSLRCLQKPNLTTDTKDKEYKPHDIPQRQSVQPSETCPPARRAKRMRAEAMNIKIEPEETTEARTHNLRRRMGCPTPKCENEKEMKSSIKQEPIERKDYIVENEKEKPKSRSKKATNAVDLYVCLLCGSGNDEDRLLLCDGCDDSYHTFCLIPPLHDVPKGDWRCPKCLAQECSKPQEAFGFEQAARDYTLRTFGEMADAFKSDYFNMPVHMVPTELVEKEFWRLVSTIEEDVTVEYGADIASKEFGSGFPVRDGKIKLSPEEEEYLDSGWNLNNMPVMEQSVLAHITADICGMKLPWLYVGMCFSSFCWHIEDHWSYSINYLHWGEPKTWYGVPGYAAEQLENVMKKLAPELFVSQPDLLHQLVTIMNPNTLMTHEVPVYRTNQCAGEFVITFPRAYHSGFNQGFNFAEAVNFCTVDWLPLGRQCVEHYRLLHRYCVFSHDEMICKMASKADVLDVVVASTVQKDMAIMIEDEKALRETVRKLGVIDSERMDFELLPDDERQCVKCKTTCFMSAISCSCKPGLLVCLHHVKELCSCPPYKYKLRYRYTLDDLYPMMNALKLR

As to `Cn1nc(Nc2cnccc2C(=O)O)c2cc(F)ccc21` [Example 7, 3-[(5-fluoro-1-methyl-1H-indazol-3-yl)amino]pyridine-4-carboxylic acid], the IC50 – broadly, the concentration needed to halve the response being measured – on Jarid1A is less than 100 nM; with KDM5A/B (setting [1]), 1000 to 10000 nM; against Jarid1B it was less than 100 nM; against JMJD2C it was less than 100 nM.
For the compound `CN(C)CCOCCn1nc(Nc2cnccc2C(=O)O)c2ccccc21` [Example 11, 3-[(1-{2-[2-(dimethylamino)ethoxy]ethyl}-1H-indazol-3-yl)amino]pyridine-4-carboxylic acid], the IC50 was less than 100 nM against Jarid1A, more than 10000 nM in the test with KDM5A/B (setting [1]), less than 100 nM against Jarid1B and less than 100 nM on JMJD2C.
As for `Cn1nc(Nc2cnccc2C(=O)O)c2cc(C(F)(F)F)ccc21` [Example 14, 3-[(5-trifluoromethyl-1-methyl-1H-indazol-3-yl)amino]pyridine-4-carboxylic acid], the IC50 is less than 100 nM against Jarid1A, 1000 to 10000 nM in the test with KDM5A/B (setting [1]), less than 100 nM against Jarid1B and less than 100 nM on JMJD2C.
As to `COCCCn1nc(Nc2cnccc2C(=O)O)c2cc(F)ccc21` [Example 17, 3-{[5-fluoro-1-(methoxypropyl)-1H-indazol-3-yl]amino}pyridine-4-carboxylic acid], the IC50 on Jarid1A was less than 100 nM; with KDM5A/B (setting [1]), more than 10000 nM; on Jarid1B, less than 100 nM; against JMJD2C it was less than 100 nM.
As for `CCCn1nc(Nc2cnccc2C(=O)O)c2cccc(F)c21` [Example 20, 3-[(7-fluoro-1-propyl-1H-indazol-3-yl)amino]pyridine-4-carboxylic acid], the IC50 was less than 100 nM against Jarid1A, 1000 to 10000 nM in the test with KDM5A/B (setting [1]), less than 100 nM on Jarid1B and less than 100 nM against JMJD2C.
Take `CN(C)CCOCCn1nc(Nc2cnccc2C(=O)O)c2cc(F)ccc21` [Example 27, 3-[(1-{2-[2-(dimethylamino)ethoxy]ethyl}-5-fluoro-1H-indazol-3-yl)amino]pyridine-4-carboxylic acid, acetic acid salt]: the IC50 was less than 100 nM against Jarid1A, more than 10000 nM in the test on KDM5A/B (setting [1]), less than 100 nM on Jarid1B and less than 100 nM at JMJD2C.
For `O=C(O)c1ccncc1Nc1nn(CCCO)c2ccc(F)cc12` [Example 42, 3-{[5-fluoro-1-(3-hydroxypropyl)-1H-indazol-3-yl]amino}pyridine-4-carboxylic acid], the IC50 was less than 100 nM on Jarid1A, 1000 to 10000 nM in the test on KDM5A/B (setting [1]), less than 100 nM on Jarid1B and less than 100 nM against JMJD2C.
Turning to `CN(C)CCCCn1nc(Nc2cnccc2C(=O)O)c2cc(F)ccc21` [Example 43, 3-({1-[4-(dimethylamino)butyl]-5-fluoro-1H-indazol-3-yl}amino)pyridine-4-carboxylic acid, trifluoroacetic acid salt], the IC50 is less than 100 nM at Jarid1A, 1000 to 10000 nM in the test with KDM5A/B (setting [2]), less than 100 nM at Jarid1B and less than 100 nM at JMJD2C.
`O=C(O)c1ccncc1Nc1nn(CCC2CCCNC2)c2ccc(F)cc12` (stereo not shown) [Example 47, 3-({5-fluoro-1-[2-(piperidin-3-yl)ethyl]-1H-indazol-3-yl}amino)pyridine-4-carboxylic acid, trifluoroacetic acid salt]: the IC50 against Jarid1A was less than 100 nM; in the test with KDM5A/B (setting [2]) it was more than 10000 nM; against Jarid1B it was less than 100 nM; at JMJD2C, less than 100 nM.
Take `O=C(O)c1ccncc1Nc1nn(CC(O)CO)c2ccc(F)cc12` (stereo not shown) [Example 48, 3-{[1-(2,3-dihydroxypropyl)-5-fluoro-1H-indazol-3-yl]amino}pyridine-4-carboxylic acid]: the IC50 against Jarid1A was less than 100 nM; with KDM5A/B (setting [1]), more than 10000 nM; at Jarid1B it was less than 100 nM; on JMJD2C, less than 100 nM.
In the case of `O=C(O)c1ccncc1Nc1nn(CCN2CCCC2)c2ccc(F)cc12` [Example 50, 3-({5-fluoro-1-[2-(pyrrolidin-1-yl)ethyl]-1H-indazol-3-yl}amino)pyridine-4-carboxylic acid], the 50% inhibitory concentration (IC50) is less than 100 nM against Jarid1A, 1000 to 10000 nM in the test on KDM5A/B (setting [1]), less than 100 nM against Jarid1B and less than 100 nM against JMJD2C.
As for `CC(O)Cn1nc(Nc2cnccc2C(=O)O)c2cc(F)ccc21` (stereo not shown) [Example 51, 3-{[5-fluoro-1-(2-hydroxypropyl)-1H-indazol-3-yl]amino}pyridine-4-carboxylic acid], the IC50 is less than 100 nM against Jarid1A, 1000 to 10000 nM in the test on KDM5A/B (setting [1]), less than 100 nM against Jarid1B and less than 100 nM against JMJD2C.
For `CCCn1nc(Nc2cnccc2C(=O)O)c2cc(C#N)ccc21` [Example 53], the IC50 on Jarid1A was less than 100 nM; in the test with KDM5A/B (setting [1]) it was 1000 to 10000 nM; against Jarid1B, less than 100 nM; against JMJD2C it was less than 100 nM.
For the compound `O=C(O)c1ccncc1Nc1nn(C2CCOC2)c2ccc(F)cc12` (stereo not shown) [Example 54, 3-{[5-fluoro-1-(tetrahydrofuran-3-yl)-1H-indazol-3-yl]amino}pyridine-4-carboxylic acid], the IC50 at Jarid1A was less than 100 nM; in the test with KDM5A/B (setting [1]), 1000 to 10000 nM; against Jarid1B, less than 100 nM; at JMJD2C it was less than 100 nM.
As to `CN1CCOC(CCn2nc(Nc3cnccc3C(=O)O)c3cc(F)ccc32)C1` (stereo not shown) [Example 58, 3-({5-fluoro-1-[2-(4-methylmorpholin-2-yl)ethyl]-1H-indazol-3-yl}amino)pyridine-4-carboxylic acid], the IC50 was less than 100 nM against Jarid1A, 1000 to 10000 nM with KDM5A/B (setting [1]), less than 100 nM on Jarid1B and less than 100 nM against JMJD2C.
For the compound `O=C(O)c1ccncc1Nc1nn([C@H]2CCOC2)c2ccc(F)cc12` [Example 66, 3-({5-fluoro-1-[(3S)-tetrahydrofuran-3-yl]-1H-indazol-3-yl}amino)pyridine-4-carboxylic acid], the IC50 at Jarid1A was less than 100 nM; in the test with KDM5A/B (setting [1]), 1000 to 10000 nM; on Jarid1B, less than 100 nM; at JMJD2C, less than 100 nM.
As to `O=C(O)c1ccncc1Nc1nn([C@@H]2CCOC2)c2ccc(F)cc12` [Example 67, 3-({5-fluoro-1-[(3R)-tetrahydrofuran-3-yl]-1H-indazol-3-yl}amino)pyridine-4-carboxylic acid], the IC50 against Jarid1A is less than 100 nM; with KDM5A/B (setting [1]), 1000 to 10000 nM; on Jarid1B, less than 100 nM; against JMJD2C, less than 100 nM.
`O=C(O)c1ccncc1Nc1nn(CCN2CCC(F)(F)C2)c2ccc(F)cc12` [Example 71, 3-({1-[2-(3,3-difluoropyrrolidin-1yl)ethyl]-5-fluoro-1H-indazol-3-yl}amino)pyridine-4-carboxylic acid]: the IC50 against Jarid1A is less than 100 nM; in the test on KDM5A/B (setting [1]), 1000 to 10000 nM; against Jarid1B, less than 100 nM; against JMJD2C it was less than 100 nM.
For the compound `O=C(O)c1ccncc1Nc1nn(CCN2CCC(F)(F)CC2)c2ccc(F)cc12` [Example 73, 3-({1-[2-(4,4-difluoropiperidin-1yl)ethyl]-5-fluoro-1H-indazol-3-yl}amino)pyridine-4-carboxylic acid], the IC50 against Jarid1A was less than 100 nM; in the test with KDM5A/B (setting [1]), 100 to 1000 nM; against Jarid1B it was less than 100 nM; against JMJD2C it was less than 100 nM.

Source of the values: US9617242B2, “Histone demethylase inhibitors” (priority 2012, dated 2017).
